Experimental data: PubChem BioAssay AID1919000 (Molecular Pharmacology Branch, DTP, NCI, 2023)
“And” between values parts separate entries of the source, which are not always exact repeats. Equal entries are not always repeated.

Test system: 653999-131-R-J2-PDC complex spheroids, growth % test/control
Assay: Anticancer human tumor 653999-131-R-J2-PDC patient-derived lung adenocarcinoma cell line growth inhibition [AhR]
Details: for viability, T/C: stronger effect = lower value
Method in brief: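 Spheroids combined tumor cells with HUVEC endothelial cells and human MSCs as stroma. AhR antagonists were paired with standard or investigational drugs, each dosed in half-log steps down from near clinical Cmax, or from 10 microM where Cmax was unknown.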

[1] = curve of first compound, second compound 0.1 µM
[2] = curve of first compound, second compound 0.316 µM
[3] = curve of first compound, second compound 1 µM
[4] = curve of first compound, second compound 3.16 µM
[5] = curve of first compound, second compound 10 µM
[6] = second compound 0.1 µM, first compound 0.0316 µM
[7] = second compound 0.1 µM, first compound 0.1 µM
[8] = second compound 0.1 µM, first compound 0.316 µM
[9] = second compound 0.1 µM, first compound 1 µM
[10] = second compound 0.1 µM, first compound 3.16 µM
[11] = second compound 0.1 µM, first compound 10 µM
[12] = second compound 0.316 µM, first compound 0.0316 µM
[13] = second compound 0.316 µM, first compound 0.1 µM
[14] = second compound 0.316 µM, first compound 0.316 µM
[15] = second compound 0.316 µM, first compound 1 µM
[16] = second compound 0.316 µM, first compound 3.16 µM
[17] = second compound 0.316 µM, first compound 10 µM
[18] = second compound 1 µM, first compound 0.0316 µM
[19] = second compound 1 µM, first compound 0.1 µM
[20] = second compound 1 µM, first compound 0.316 µM
[21] = second compound 1 µM, first compound 1 µM
[22] = second compound 1 µM, first compound 3.16 µM
[23] = second compound 1 µM, first compound 10 µM
[24] = second compound 3.16 µM, first compound 0.0316 µM
[25] = second compound 3.16 µM, first compound 0.1 µM
[26] = second compound 3.16 µM, first compound 0.316 µM
[27] = second compound 3.16 µM, first compound 1 µM
[28] = second compound 3.16 µM, first compound 3.16 µM
[29] = second compound 3.16 µM, first compound 10 µM
[30] = second compound 10 µM, first compound 0.0316 µM
[31] = second compound 10 µM, first compound 0.1 µM
[32] = second compound 10 µM, first compound 0.316 µM
[33] = second compound 10 µM, first compound 1 µM
[34] = second compound 10 µM, first compound 3.16 µM
[35] = second compound 10 µM, first compound 10 µM
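Also: spheroids exposed to agents for seven days.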
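For viability, T/C in this document: 100% = DMSO vehicle control viability.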

COc1cc(Nc2ncc3c(n2)-c2ccc(Cl)cc2C(c2c(F)cccc2OC)=NC3)ccc1C(=O)O + Cc1cncc(-c2nc(NCCc3c[nH]c4ccccc34)c3ncn(C(C)C)c3n2)c1
IC50 [1]: > 10 µM
IC50 [2]: > 10 µM
IC50 [3]: > 10 µM
IC50 [4]: > 10 µM
IC50 [5]: > 10 µM
viability, T/C [6]: 82.1%
viability, T/C [7]: 75.4%
viability, T/C [8]: 66.3%
viability, T/C [9]: 63.3%
viability, T/C [10]: 58.3%
viability, T/C [11]: 55.5%
viability, T/C [12]: 78.7%
viability, T/C [13]: 67.7%
viability, T/C [14]: 66.6%
viability, T/C [15]: 63.2%
viability, T/C [16]: 60.6%
viability, T/C [17]: 54.4%
viability, T/C [18]: 91%
viability, T/C [19]: 78.6%
viability, T/C [20]: 80%
viability, T/C [21]: 68.2%
viability, T/C [22]: 61.9%
viability, T/C [23]: 57.8%
viability, T/C [24]: 96.7%
viability, T/C [25]: 86.4%
viability, T/C [26]: 78.6%
viability, T/C [27]: 73.4%
viability, T/C [28]: 73.1%
viability, T/C [29]: 64.7%
viability, T/C [30]: 65.5%
viability, T/C [31]: 49.9%
viability, T/C [32]: 57.9%
viability, T/C [33]: 49.9%
viability, T/C [34]: 55.5%
viability, T/C [35]: 64.4%

COc1cc(Nc2ncc3c(n2)-c2ccc(Cl)cc2C(c2c(F)cccc2OC)=NC3)ccc1C(=O)O + Cc1ccccc1N=Nc1ccc(NC(=O)c2ccnn2C)c(C)c1
IC50 [1]: > 10 µM
IC50 [2]: > 10 µM
IC50 [3]: > 10 µM
IC50 [4]: > 10 µM
IC50 [5]: > 10 µM
viability, T/C [6]: 87.8%
viability, T/C [7]: 74.9%
viability, T/C [8]: 71.1%
viability, T/C [9]: 58.2%
viability, T/C [10]: 57.1%
viability, T/C [11]: 64.3%
viability, T/C [12]: 93.4%
viability, T/C [13]: 70.9%
viability, T/C [14]: 71.9%
viability, T/C [15]: 67.3%
viability, T/C [16]: 57.9%
viability, T/C [17]: 60.1%
viability, T/C [18]: 81%
viability, T/C [19]: 74%
viability, T/C [20]: 66.8%
viability, T/C [21]: 62.2%
viability, T/C [22]: 60.6%
viability, T/C [23]: 53.8%
viability, T/C [24]: 83%
viability, T/C [25]: 62.8%
viability, T/C [26]: 70.5%
viability, T/C [27]: 61.2%
viability, T/C [28]: 62.9%
viability, T/C [29]: 54.6%
viability, T/C [30]: 80.2%
viability, T/C [31]: 66.9%
viability, T/C [32]: 63.2%
viability, T/C [33]: 71%
viability, T/C [34]: 56.5%
viability, T/C [35]: 54.4%

Nc1ncn(C2CC(O)C(CO)O2)c(=O)n1 (stereo unspecified)
viability, T/C (compound 0.00316 µM): 105% and 95.5% and 110%
viability, T/C (compound 0.01 µM): 106% and 102% and 111%
viability, T/C (compound 0.0316 µM): 96.8% and 96.9% and 93.9%
viability, T/C (compound 0.1 µM): 89.9% and 86.5% and 91.9%
viability, T/C (compound 0.316 µM): 86.2% and 91.9% and 90.9%
viability, T/C (compound 1 µM): 77.5% and 78.8% and 85.9%
IC50 (curve of compound): > 1 µM

CC(C)c1c(-c2ccccc2)nc2c(C#N)c[nH]n2c1=O + CC(CO)NC(=O)c1cc(-c2ccc(Cl)cc2)nn(-c2cnn(C)c2)c1=O
IC50 [1]: > 10 µM
IC50 [2]: > 10 µM
IC50 [3]: > 10 µM
IC50 [4]: > 10 µM
IC50 [5]: > 10 µM
viability, T/C [6]: 104%
viability, T/C [7]: 105%
viability, T/C [8]: 99.4%
viability, T/C [9]: 94.2%
viability, T/C [10]: 93.3%
viability, T/C [11]: 90.9%
viability, T/C [12]: 102%
viability, T/C [13]: 105%
viability, T/C [14]: 93.3%
viability, T/C [15]: 101%
viability, T/C [16]: 93.8%
viability, T/C [17]: 99%
viability, T/C [18]: 104%
viability, T/C [19]: 106%
viability, T/C [20]: 114%
viability, T/C [21]: 98%
viability, T/C [22]: 97.9%
viability, T/C [23]: 95.4%
viability, T/C [24]: 105%
viability, T/C [25]: 108%
viability, T/C [26]: 123%
viability, T/C [27]: 93.6%
viability, T/C [28]: 92.2%
viability, T/C [29]: 91.9%
viability, T/C [30]: 104%
viability, T/C [31]: 116%
viability, T/C [32]: 100%
viability, T/C [33]: 102%
viability, T/C [34]: 95.4%
viability, T/C [35]: 96.7%

CC(C)CC(NC(=O)C(Cc1ccccc1)NC(=O)c1cnccn1)B(O)O (stereo unspecified)
viability, T/C (compound 0.000949 µM): 112% and 106% and 110%
viability, T/C (compound 0.003 µM): 118% and 114% and 124%
viability, T/C (compound 0.00949 µM): 107% and 96.5% and 60.7%
viability, T/C (compound 0.03 µM): 30.4% and 28.9% and 21.5%
viability, T/C (compound 0.0949 µM): 11.3% and 14.9% and 9.51%
viability, T/C (compound 0.3 µM): 3.46% and 4.18% and 3.51%
IC50 (curve of compound): 0.0224 µM and 0.0211 µM and 0.0124 µM

CC(C)c1c(-c2ccccc2)nc2c(C#N)c[nH]n2c1=O
viability, T/C (compound 0.0316 µM): 109% and 93.9% and 110%
viability, T/C (compound 0.1 µM): 112% (2×) and 109%
viability, T/C (compound 0.316 µM): 96.8% and 108% and 104%
viability, T/C (compound 1 µM): 90.2% and 116% and 109%
viability, T/C (compound 3.16 µM): 103% and 101% (2×)
viability, T/C (compound 10 µM): 96.2% (2×) and 103%
IC50 (curve of compound): > 10 µM

CC[C@@]1(O)C(=O)OCc2c1cc1n(c2=O)Cc2cc3c(CN(C)C)c(O)ccc3nc2-1 + CC(CO)NC(=O)c1cc(-c2ccc(Cl)cc2)nn(-c2cnn(C)c2)c1=O
IC50 [1]: 0.0367 µM
IC50 [2]: 0.0277 µM
IC50 [3]: 0.0245 µM
IC50 [4]: 0.0229 µM
IC50 [5]: 0.021 µM
viability, T/C (second compound 0.1 µM, first compound 0.000316 µM): 94.8%
viability, T/C (second compound 0.1 µM, first compound 0.001 µM): 97.8%
viability, T/C (second compound 0.1 µM, first compound 0.00316 µM): 94.9%
viability, T/C (second compound 0.1 µM, first compound 0.01 µM): 79%
viability, T/C [6]: 52.2%
viability, T/C [7]: 38.1%
viability, T/C (second compound 0.316 µM, first compound 0.000316 µM): 93.2%
viability, T/C (second compound 0.316 µM, first compound 0.001 µM): 94.4%
viability, T/C (second compound 0.316 µM, first compound 0.00316 µM): 97.4%
viability, T/C (second compound 0.316 µM, first compound 0.01 µM): 79.1%
viability, T/C [12]: 46.8%
viability, T/C [13]: 31.3%
viability, T/C (second compound 1 µM, first compound 0.000316 µM): 111%
viability, T/C (second compound 1 µM, first compound 0.001 µM): 96%
viability, T/C (second compound 1 µM, first compound 0.00316 µM): 99.1%
viability, T/C (second compound 1 µM, first compound 0.01 µM): 80.7%
viability, T/C [18]: 40.6%
viability, T/C [19]: 32.3%
viability, T/C (second compound 3.16 µM, first compound 0.000316 µM): 85.9%
viability, T/C (second compound 3.16 µM, first compound 0.001 µM): 92.3%
viability, T/C (second compound 3.16 µM, first compound 0.00316 µM): 95.3%
viability, T/C (second compound 3.16 µM, first compound 0.01 µM): 69.8%
viability, T/C [24]: 43.6%
viability, T/C [25]: 31.4%
viability, T/C (second compound 10 µM, first compound 0.000316 µM): 90.5%
viability, T/C (second compound 10 µM, first compound 0.001 µM): 95.3%
viability, T/C (second compound 10 µM, first compound 0.00316 µM): 83.7%
viability, T/C (second compound 10 µM, first compound 0.01 µM): 65.9%
viability, T/C [30]: 41.3%
viability, T/C [31]: 32.3%

O=C(c1cc(Cc2n[nH]c(=O)c3ccccc23)ccc1F)N1CCN(C(=O)C2CC2)CC1 + CC(CO)NC(=O)c1cc(-c2ccc(Cl)cc2)nn(-c2cnn(C)c2)c1=O
IC50 [1]: > 10 µM
IC50 [2]: > 10 µM
IC50 [3]: > 10 µM
IC50 [4]: > 10 µM
IC50 [5]: > 10 µM
viability, T/C [6]: 82.1%
viability, T/C [7]: 89.5%
viability, T/C [8]: 81.5%
viability, T/C [9]: 83.6%
viability, T/C [10]: 79.9%
viability, T/C [11]: 76.9%
viability, T/C [12]: 91%
viability, T/C [13]: 97.5%
viability, T/C [14]: 96.1%
viability, T/C [15]: 84.2%
viability, T/C [16]: 81.1%
viability, T/C [17]: 78.7%
viability, T/C [18]: 84.7%
viability, T/C [19]: 90.4%
viability, T/C [20]: 89.5%
viability, T/C [21]: 85.6%
viability, T/C [22]: 81.7%
viability, T/C [23]: 79.5%
viability, T/C [24]: 95%
viability, T/C [25]: 86.6%
viability, T/C [26]: 93%
viability, T/C [27]: 85.5%
viability, T/C [28]: 84.6%
viability, T/C [29]: 78.3%
viability, T/C [30]: 88%
viability, T/C [31]: 94.5%
viability, T/C [32]: 82.9%
viability, T/C [33]: 84.5%
viability, T/C [34]: 76.3%
viability, T/C [35]: 75.7%
